Results published in patent publication US8058475B2, “Substituted cyclohexylmethyl compounds” (Gruenenthal GmbH, priority 2005, dated 2011).
Like-named read-outs stand apart in the source and are kept apart here.

Target: human μ-opiate receptor (Homo sapiens, UniProt P35372)
Assay: Affinity for the human μ-opiate receptor ([3H]-naloxone displacement, SPA, CHO-K1 membrane preparation)
Assay type: binding
Settings: for inhibition at 1 µM: read-out: μ-Opioid receptor, % inhibition [1 μM]; for Ki: read-out: μ-Opioid receptor, Ki
[1] = 1 μM test substance, inhibition of specific [3H]-naloxone binding

Chain of human μ-opiate receptor (P35372 whole entry): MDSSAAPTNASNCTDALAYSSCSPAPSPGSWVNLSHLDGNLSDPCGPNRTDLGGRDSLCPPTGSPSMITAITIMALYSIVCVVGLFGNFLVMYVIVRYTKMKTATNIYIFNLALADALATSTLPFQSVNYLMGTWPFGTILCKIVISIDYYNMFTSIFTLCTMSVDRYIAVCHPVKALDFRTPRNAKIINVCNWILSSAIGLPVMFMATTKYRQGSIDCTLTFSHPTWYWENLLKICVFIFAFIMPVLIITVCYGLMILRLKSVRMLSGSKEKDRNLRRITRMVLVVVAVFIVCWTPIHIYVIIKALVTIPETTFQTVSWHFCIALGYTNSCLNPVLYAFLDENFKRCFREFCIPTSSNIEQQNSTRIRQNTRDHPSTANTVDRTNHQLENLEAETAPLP

CC(Oc1ccccc1)C(=O)NCC1CCC(C(c2ccccc2)N(C)C)CC1 (stereo not shown) [compound 323, N-[4-(dimethylamino-phenyl-methyl)-cyclohexylmethyl]-2-phenoxy-propionamide]
inhibition at 1 µM: 95% | Ki: 15 nM

CC(Oc1ccccc1)C(=O)NCC1CCC(C(c2cccc(F)c2)N(C)C)CC1 (single isomer, unassigned) [compound 341, N-{4-[dimethylamino-(3-fluoro-phenyl)-methyl]-cyclohexylmethyl}-2-phenoxy-propionamide]
Ki: 13 nM

CCSc1ncccc1C(=O)NCC1CCC(C(c2ccccc2)N(C)C)CC1 (stereo not shown) [compound 310, N-[4-(dimethylamino-phenyl-methyl)-cyclohexylmethyl]-2-ethylsulfanyl-nicotinamide]
inhibition at 1 µM: 98% | Ki: 16 nM

CN(C)C(c1cccc(F)c1)C1CCC(CCNC(=O)c2cccc(Cl)c2)CC1 (single isomer, unassigned) [compound 400, 3-chloro-N-(2-{4-[dimethylamino-(3-fluoro-phenyl)-methyl]-cyclohexyl}-ethyl)-benzamide]
inhibition at 1 µM: 94% | Ki: 23 nM

CN(C)C(c1cccc(F)c1)C1CCC(CNC(=O)c2ccc(F)c(C(F)(F)F)c2)CC1 (stereo not shown) [compound 350, N-{4-[dimethylamino-(3-fluoro-phenyl)-methyl]-cyclohexylmethyl}-4-fluoro-3-trifluoromethyl-benzamide]
inhibition at 1 µM: 89% | Ki: 37 nM

CN(C)C(c1cccc(F)c1)C1CCC(NC(=O)c2ccc(Cl)c(Cl)c2)CC1 (stereo not shown) [compound 209, 3,4-dichloro-N-{4-[dimethylamino-(3-fluoro-phenyl)-methyl]-cyclohexyl}-benzamide]
inhibition at 1 µM: 92% | Ki: 47 nM

CN(C)C(c1ccccc1)C1CCC(CNC(=O)Cc2ccc(Cl)cc2)CC1 (stereo not shown) [compound 324, 2-(4-chloro-phenyl)-N-[4-(dimethylamino-phenyl-methyl)-cyclohexylmethyl]-acetamide]
inhibition at 1 µM: 95% | Ki: 22 nM

CN(C)C(c1ccc(Cl)cc1)C1CCC(O)(c2cccc(F)c2)CC1 (stereo not shown) [compound 171, 4-[(4-chloro-phenyl)-dimethylamino-methyl]-1-(3-fluoro-phenyl)-cyclohexanol]
inhibition at 1 µM [1]: 67%

CN(C)C(c1ccccc1)C1CCC(NC(=O)c2cccs2)CC1 (single isomer, unassigned) [compound 249, thiophene-2-carboxylic acid [4-(dimethylamino-phenyl-methyl)-cyclohexyl]-amide]
μ-Opioid receptor, % inhibition [1 μM] (1 µM): 81% | Ki: 64 nM

CN(C)C(c1cccs1)C1CCC(NC(=O)c2cccnc2Oc2ccc(Cl)cc2)CC1 (stereo not shown) [compound 257, 2-(4-chloro-phenoxy)-N-[4-(dimethylamino-thiophen-2-yl-methyl)-cyclohexyl]-nicotinamide]
inhibition at 1 µM: 79% | Ki: 81 nM

CN(C)C(c1ccc(F)cc1)C1CCC(NC(=O)c2ccc(F)cc2)CC1 (stereo not shown) [compound 262, N-{4-[dimethylamino-(4-fluoro-phenyl)-methyl]-cyclohexyl}-4-fluoro-benzamide]
inhibition at 1 µM: 78% | Ki: 96 nM

Cc1ccccc1C(=O)NCC1CCC(C(c2ccccc2)N(C)C)CC1 (single isomer, unassigned) [compound 317, N-[4-(dimethylamino-phenyl-methyl)-cyclohexylmethyl]-2-methyl-benzamide]
inhibition at 1 µM: 95% | Ki: 29 nM

CCC(C(=O)NC1CCC(C(c2ccccc2)N(C)C)CC1)c1ccccc1 (single isomer, unassigned) [compound 250, N-[4-(dimethylamino-phenyl-methyl)-cyclohexyl]-2-phenyl-butyramide]
μ-Opioid receptor, % inhibition [1 μM] (1 µM): 81% | Ki: 36 nM

CSc1ncccc1C(=O)NCC1CCC(C(c2ccc(Cl)cc2)N(C)C)CC1 (stereo not shown) [compound 315, N-{4-[(4-chloro-phenyl)-dimethylamino-methyl]-cyclohexylmethyl}-2-methyl-sulfanyl-nicotinamide]
μ-Opioid receptor, % inhibition [1 μM]: 97% | Ki: 160 nM

CN(C)C(c1cccc(F)c1)C1CCC(CNC(=O)c2cc(Cl)cc(Cl)c2)CC1 (stereo not shown) [compound 371, 3,5-dichloro-N-{4-[dimethylamino-(3-fluoro-phenyl)-methyl]-cyclohexylmethyl}-benzamide]
inhibition at 1 µM: 84% | Ki: 130 nM

CN(C)C(CCc1ccccc1)C1CCC(NC(=O)c2cc(F)ccc2F)CC1 (stereo not shown) [compound 276, N-[4-(1-dimethylamino-3-phenyl-propyl)-cyclohexyl]-2,5-difluoro-benzamide]
inhibition at 1 µM: 74% | Ki: 65 nM

CN(C)C(c1ccccc1)C1CCC(CNC(=O)c2cccc(C(F)(F)F)c2)CC1 (single isomer, unassigned) [compound 326, N-[4-(dimethylamino-phenyl-methyl)-cyclohexylmethyl]-3-trifluoromethyl-benzamide]
inhibition at 1 µM: 94% | Ki: 11 nM

CN(C)C(CCc1ccccc1)C1CCC(NC(=O)c2ccc(F)c(C(F)(F)F)c2)CC1 (single isomer, unassigned) [compound 227, N-[4-(1-dimethylamino-3-phenyl-propyl)-cyclohexyl]-4-fluoro-3-trifluoromethyl-benzamide]
μ-Opioid receptor, % inhibition [1 μM] (1 µM): 87% | Ki: 58 nM

CN(C)C(c1ccccc1)C1CCC(CCNC(=O)c2csc(-c3ccccc3)n2)CC1 (stereo not shown) [compound 463, 2-phenyl-thiazole-4-carboxylic acid {2-[4-(dimethylamino-phenyl-methyl)-cyclohexyl]-ethyl}-amide]
inhibition at 1 µM: 104% | Ki: 8.6 nM

CN(C)C(c1ccc(F)cc1)C1CCC(NC(=O)c2cc(F)c(F)cc2F)CC1 (stereo not shown) [compound 271, N-{4-[dimethylamino-(4-fluoro-phenyl)-methyl]-cyclohexyl}-2,4,5-trifluoro-benzamide]
inhibition at 1 µM: 75% | Ki: 19 nM

CCC(C(=O)NCCC1CCC(C(c2cccs2)N(C)C)CC1)c1ccccc1 (stereo not shown) [compound 456, N-{2-[4-(dimethylamino-thiophen-2-yl-methyl)-cyclohexyl]-ethyl}-2-phenyl-butyramide]
inhibition at 1 µM: 96% | Ki: 23 nM

CN(C)C(c1ccccc1)C1CCC(NC(=O)c2cccc(C#N)c2)CC1 (stereo not shown) [compound 261, 3-cyano-N-[4-(dimethylamino-phenyl-methyl)-cyclohexyl]-benzamide]
inhibition at 1 µM: 78% | Ki: 130 nM

Cc1cccc(C(=O)NCCC2CCC(C(c3cccc(F)c3)N(C)C)CC2)c1 (stereo not shown) [compound 412, N-(2-{4-[dimethylamino-(3-fluoro-phenyl)-methyl]-cyclohexyl}-ethyl)-3-methyl-benzamide]
inhibition at 1 µM: 93% | Ki: 32 nM

CN(C)C(c1ccc(Cl)cc1)C1CCC(CCNC(=O)c2ccc(F)c(F)c2)CC1 (stereo not shown) [compound 445, N-(2-{4-[(4-chloro-phenyl)-dimethylamino-methyl]-cyclohexyl}-ethyl)-3,4-difluoro-benzamide]
inhibition at 1 µM: 86% | Ki: 69 nM

CN(C)C(c1ccc(Cl)cc1)C1CCC(CCNC(=O)c2cc(F)c(Cl)cc2Cl)CC1 (stereo not shown) [compound 437, 2,4-dichloro-N-(2-{4-[(4-chloro-phenyl)-dimethylamino-methyl]-cyclohexyl}-ethyl)-5-fluoro-benzamide]
inhibition at 1 µM: 80% | Ki: 100 nM

CN(C)C(c1ccc(Cl)cc1)C1CCC(CNC(=O)c2cccc(C(F)(F)F)c2)CC1 (stereo not shown) [compound 369, N-{4-[(4-chloro-phenyl)-dimethylamino-methyl]-cyclohexylmethyl}-3-trifluoromethyl-benzamide]
inhibition at 1 µM: 84% | Ki: 68 nM

CN(C)C(c1ccccc1)C1CCC(NC(=O)c2cccc(C(F)(F)F)c2)CC1 (stereo not shown) [compound 203, N-[4-(dimethylamino-phenyl-methyl)-cyclohexyl]-3-trifluoromethyl-benzamide]
inhibition at 1 µM: 94% | Ki: 51 nM

CN(C)C(c1ccc(Cl)cc1)C1CCC(CNC(=O)Cc2cccs2)CC1 (stereo not shown) [compound 316, N-{4-[(4-chloro-phenyl)-dimethylamino-methyl]-cyclohexylmethyl}-2-thiophen-2-yl-acetamide]
inhibition at 1 µM: 96%

COC(=O)C(Cc1c[nH]c2ccccc12)NC1CCC(C(c2ccccc2)N(C)C)CC1 (single isomer, unassigned) [compound 174, methyl 2-(4-((dimethylamino)(phenyl)methyl)cyclohexylamino)-3-(1H-indol-3-yl)propanoate]
inhibition at 1 µM [1]: 95% | Ki: 4.9 nM

CN(C)C(c1ccccc1)C1CCC(NC(=O)C2CCCCC2)CC1 (stereo not shown) [compound 272, cyclohexanecarboxylic acid [4-(dimethylamino-phenyl-methyl)-cyclohexyl]-amide]
inhibition at 1 µM: 75% | Ki: 90 nM

CN(C)C(c1ccc(F)cc1)C1CCC(CNC(=O)CC(C)(C)C)CC1 (stereo not shown) [compound 322, N-{4-[dimethylamino-(4-fluoro-phenyl)-methyl]-cyclohexylmethyl}-3,3-dimethyl-butyramide]
inhibition at 1 µM: 95% | Ki: 31 nM

CCSc1ncccc1C(=O)NC1CCC(C(c2cccs2)N(C)C)CC1 (stereo not shown) [compound 213, N-[4-(dimethylamino-thiophen-2-yl-methyl)-cyclohexyl]-2-ethylsulfanyl-nicotinamide]
inhibition at 1 µM: 91% | Ki: 96 nM

CN(C)C(c1cccs1)C1CCC(NC(=O)c2cccs2)CC1 (stereo not shown) [compound 193, thiophene-2-carboxylic acid [4-(dimethylamino-thiophen-2-yl-methyl)-cyclohexyl]-amide]
inhibition at 1 µM: 96% | Ki: 23 nM

CN(C)C(c1ccc(Cl)cc1)C1CCC(O)(c2ccccc2)CC1 (stereo not shown) [compound 158, 4-[(4-chloro-phenyl)-dimethylamino-methyl]-1-phenyl-cyclohexanol]
inhibition at 1 µM [1]: 58%

CN(C)C(c1ccc(Cl)cc1)C1CCC(O)(c2cc(F)cc(F)c2)CC1 (stereo not shown) [compound 166, 4-[(4-chloro-phenyl)-dimethylamino-methyl]-1-(3,5-difluoro-phenyl)-cyclohexanol]
inhibition at 1 µM [1]: 62%

COc1c(C(=O)NC2CCC(C(c3ccccc3)N(C)C)CC2)csc1Cl (stereo not shown) [compound 188, 5-chloro-4-methoxy-thiophene-3-carboxylic acid [4-(dimethylamino-phenyl-methyl)-cyclohexyl]-amide]
inhibition at 1 µM: 100% | Ki: 5.2 nM
